The values below come from ChEMBL document CHEMBL1157915, “Bivalent beta-carbolines as potential multitarget anti-Alzheimer agents” (J Med Chem, 2010).

Series [1] has as its target Acetylcholinesterase (Electrophorus electricus, UniProt O42275).
Description: Inhibition of electric eel AChE by modified Ellman's method
The target of series [2] is Cholinesterase (Equus caballus, UniProt P81908).
Description: Inhibition of equine serum BChE by modified Ellman's method
Series [3] is described as follows: Cytotoxicity against mouse L12-G10 cells at 50 uM by MTT assay. The class given is cell-based. To be noted: l12-g10, 50 µM. A general note: Formazan colour is commonly taken as a measure of viable cells.
Series [4] is described as follows: Cytotoxicity against mouse L12-G10 cells by MTT assay. The class given is cell-based.
Series [5] has as its target Glutamate NMDA receptor; GRIN1/GRIN2B (Homo sapiens, UniProt Q05586+Q13224). Kind of series: Displacement of [3H]ifenprodil from human NR1-1a/NR2B receptor expressed in mouse L13-E6 cells. Format: cell-based. For orientation: Loss of bound radioactivity is the signal in a displacement assay; it reports binding, not function.
The target in series [6] is Glutamate NMDA receptor; GRIN1/GRIN2A (Homo sapiens) (UniProt Q05586+Q12879). The conditions noted are these: L12-G10, 100 uM.
Description: Inhibition of dexamethasone-induced human NR1-1a/NR2A receptor-mediated excitotoxicity in (S)-glutamate/glycine-stimulated mouse L12-G10 cells assessed as LDH release at 100 uM after 30 mins

Values joined by “and” are separate entries in the source; they are usually repeats but may differ in a detail not shown here. Identical values can stand only once.

Chain of Acetylcholinesterase (O42275 whole entry): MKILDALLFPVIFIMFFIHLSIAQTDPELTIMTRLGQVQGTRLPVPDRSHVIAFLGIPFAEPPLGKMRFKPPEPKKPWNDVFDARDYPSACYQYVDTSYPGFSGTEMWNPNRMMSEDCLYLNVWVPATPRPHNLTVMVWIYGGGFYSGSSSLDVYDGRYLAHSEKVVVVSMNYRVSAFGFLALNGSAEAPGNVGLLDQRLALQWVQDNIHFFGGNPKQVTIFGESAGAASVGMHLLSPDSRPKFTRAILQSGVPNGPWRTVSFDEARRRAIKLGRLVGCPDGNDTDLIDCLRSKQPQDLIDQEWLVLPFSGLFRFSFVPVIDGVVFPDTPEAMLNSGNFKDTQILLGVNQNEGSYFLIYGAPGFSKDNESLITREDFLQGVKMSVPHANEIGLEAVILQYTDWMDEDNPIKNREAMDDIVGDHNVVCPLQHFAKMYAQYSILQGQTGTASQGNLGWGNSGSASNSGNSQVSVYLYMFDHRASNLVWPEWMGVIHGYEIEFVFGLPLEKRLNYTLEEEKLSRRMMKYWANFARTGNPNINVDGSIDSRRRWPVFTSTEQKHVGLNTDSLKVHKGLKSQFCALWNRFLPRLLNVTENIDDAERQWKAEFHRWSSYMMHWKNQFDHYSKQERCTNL
Chain of Cholinesterase (P81908 whole entry): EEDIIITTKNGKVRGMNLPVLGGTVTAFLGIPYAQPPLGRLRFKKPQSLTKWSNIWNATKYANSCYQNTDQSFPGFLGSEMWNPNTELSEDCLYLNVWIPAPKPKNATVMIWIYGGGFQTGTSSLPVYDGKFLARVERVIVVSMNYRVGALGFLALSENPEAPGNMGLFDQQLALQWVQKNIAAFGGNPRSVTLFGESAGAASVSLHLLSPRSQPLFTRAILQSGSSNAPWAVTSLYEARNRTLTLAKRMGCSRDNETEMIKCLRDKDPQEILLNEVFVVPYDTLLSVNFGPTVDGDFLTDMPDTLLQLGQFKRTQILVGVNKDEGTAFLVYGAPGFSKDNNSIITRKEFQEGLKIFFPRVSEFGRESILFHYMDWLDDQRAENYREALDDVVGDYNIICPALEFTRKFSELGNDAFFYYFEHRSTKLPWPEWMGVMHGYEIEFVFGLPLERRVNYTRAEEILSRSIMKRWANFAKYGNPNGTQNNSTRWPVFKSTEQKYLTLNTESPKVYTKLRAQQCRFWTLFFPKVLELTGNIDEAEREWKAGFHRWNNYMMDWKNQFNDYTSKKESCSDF
Chain of Glutamate NMDA receptor; GRIN1/GRIN2B (Q13224 whole entry, other chains not shown): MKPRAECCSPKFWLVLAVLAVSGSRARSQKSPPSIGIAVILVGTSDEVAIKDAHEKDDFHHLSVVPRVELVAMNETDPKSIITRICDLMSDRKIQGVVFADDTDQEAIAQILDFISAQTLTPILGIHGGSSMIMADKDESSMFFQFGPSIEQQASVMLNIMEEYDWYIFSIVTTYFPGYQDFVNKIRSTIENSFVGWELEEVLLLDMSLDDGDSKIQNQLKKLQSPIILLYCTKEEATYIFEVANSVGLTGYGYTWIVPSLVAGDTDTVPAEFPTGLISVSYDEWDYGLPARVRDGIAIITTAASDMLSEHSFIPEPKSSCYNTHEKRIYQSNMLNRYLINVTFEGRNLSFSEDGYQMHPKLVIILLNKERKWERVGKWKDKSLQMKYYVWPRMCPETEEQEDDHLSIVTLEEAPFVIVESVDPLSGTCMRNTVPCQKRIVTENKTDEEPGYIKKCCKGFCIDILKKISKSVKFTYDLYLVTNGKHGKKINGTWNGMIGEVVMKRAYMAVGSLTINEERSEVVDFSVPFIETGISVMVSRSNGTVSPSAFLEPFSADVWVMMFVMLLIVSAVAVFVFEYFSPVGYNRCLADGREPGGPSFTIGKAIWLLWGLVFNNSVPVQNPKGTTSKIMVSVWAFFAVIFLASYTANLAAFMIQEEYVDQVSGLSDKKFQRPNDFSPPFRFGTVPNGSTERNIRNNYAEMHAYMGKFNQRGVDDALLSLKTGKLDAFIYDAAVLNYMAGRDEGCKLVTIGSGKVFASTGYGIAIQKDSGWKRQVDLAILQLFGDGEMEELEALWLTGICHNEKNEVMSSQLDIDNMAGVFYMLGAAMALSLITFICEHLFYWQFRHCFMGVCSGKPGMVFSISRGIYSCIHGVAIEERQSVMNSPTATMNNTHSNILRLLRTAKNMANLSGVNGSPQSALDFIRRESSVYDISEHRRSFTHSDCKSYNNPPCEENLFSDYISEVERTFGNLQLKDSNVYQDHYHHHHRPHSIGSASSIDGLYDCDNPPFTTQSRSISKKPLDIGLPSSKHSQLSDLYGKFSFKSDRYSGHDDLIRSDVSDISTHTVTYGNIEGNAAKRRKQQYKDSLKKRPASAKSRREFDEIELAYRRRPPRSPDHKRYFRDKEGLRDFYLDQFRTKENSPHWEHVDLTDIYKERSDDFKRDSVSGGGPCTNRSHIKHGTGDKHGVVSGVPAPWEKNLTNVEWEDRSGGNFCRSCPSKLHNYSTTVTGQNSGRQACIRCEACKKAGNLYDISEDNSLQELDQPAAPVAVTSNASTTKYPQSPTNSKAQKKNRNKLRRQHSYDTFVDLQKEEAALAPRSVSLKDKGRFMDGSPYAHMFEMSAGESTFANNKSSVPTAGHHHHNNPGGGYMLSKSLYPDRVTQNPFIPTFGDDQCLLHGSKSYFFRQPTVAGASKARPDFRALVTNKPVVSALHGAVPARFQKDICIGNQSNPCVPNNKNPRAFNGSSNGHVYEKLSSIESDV

As usually defined, the IC50 is the point on the concentration scale where inhibition reaches its midpoint. As to `c1ccc2c3c([nH]c2c1)CN(CCCCCCCCCCN1CCc2c([nH]c4ccccc24)C1)CC3`, the 50% inhibitory concentration (IC50) in series [1] was over 1000 nM; in series [2] it was 2900 nM.

Turning to `C[n+]1ccc2c(c1)[nH]c1ccccc12`, the concentration for half-maximal inhibition (IC50) in series [1] is over 10000 nM; in series [2], 540 nM.

As a reminder, the CC50 is the concentration at which the toxic effect on the cells reaches its halfway point. In the case of `[Br-].[Br-].c1ccc2c(c1)[nH]c1c[n+](CCC[n+]3ccc4c(c3)[nH]c3ccccc34)ccc12`, in series [3], the Activity was determined as 82.5%. Moreover, the half-maximal inhibitory concentration (IC50) in series [1] turned out to be 7660 nM; in series [2], 652 nM. Besides, the CC50 in series [4] was over 100000 nM.

In turn, `C[n+]1ccc2c3ccccc3n(CCCCCCCCCn3c4ccccc4c4cc[n+](C)cc43)c2c1.[I-].[I-]` showed an Activity in series [3] of 78.9%. Also, in series [4], the CC50 was over 100000 nM.

Take `CCn1c2ccccc2c2ccncc21`: the half-inhibitory concentration (IC50) is over 1000 nM in series [1] and over 10000 nM in series [2].

On to `c1ccc2c(c1)c1ccncc1n2CCCCCn1c2ccccc2c2ccncc21`, for which the half-inhibitory concentration (IC50) in series [1] was over 10000 nM; in series [2], over 1000 nM.

Compound `[Br-].[Br-].c1ccc2c(c1)[nH]c1c[n+](CC[n+]3ccc4c(c3)[nH]c3ccccc34)ccc12` registered an Activity in series [3] of 76.6%. The IC50 in series [1] is 430 nM; in series [2], 319 nM. The CC50 in series [4] is over 100000 nM.

Consider `c1cc[n+](CCCCCC[n+]2ccccc2)cc1`, for which the IC50 in series [1] and in series [2] was over 10000 nM throughout.

For the compound `CCn1c2ccccc2c2cc[n+](C)cc21`, the IC50 came out at 2570 nM in series [1] and 2020 nM in series [2].

As to `[Br-].[Br-].c1ccc2c(c1)[nH]c1c[n+](CCCCCCCCC[n+]3ccc4c(c3)[nH]c3ccccc34)ccc12`, in series [3], the Activity worked out at 73.8%. Further, the results for the concentration for half-maximal inhibition (IC50) in series [1] and in series [2] were 125 nM and 40 nM, respectively. Besides, the CC50 in series [4] was over 100000 nM.

In the case of `CNC1(c2ccccc2Cl)CCCCC1=O` (centres undefined) [KETAMINE], the Activity in series [3] was 99.8%. In addition, the IC50 in series [1] and in series [2] was over 10000 nM in each case. In addition, the CC50 in series [4] is over 100000 nM.

Regarding `[Br-].[Br-].c1ccc2c(c1)[nH]c1c[n+](CCOCCOCCOCC[n+]3ccc4c(c3)[nH]c3ccccc34)ccc12`, in series [3], the Activity turned out to be 98.6%. The results for the IC50 in series [1] and in series [2] were 3140 nM and 195 nM, respectively. This compound also showed a CC50 in series [4] of over 100000 nM.

As a reminder, the Ki is the equilibrium dissociation constant of an inhibitor or competing ligand from its target. A lower Ki goes with a stronger hold on the target. In turn, `[Br-].[Br-].c1ccc2c(c1)[nH]c1c[n+](CCCCCC[n+]3ccc4c(c3)[nH]c3ccccc34)ccc12` had an Activity in series [3] of 75%. Also, the IC50 in series [1] is 248 nM; in series [2], 186 nM. The inhibition constant Ki in series [5] was determined as 20000 nM. The same compound returned a CC50 in series [4] of over 100000 nM.

Take `CCC[n+]1ccc2c(c1)[nH]c1ccccc12`: the results for the IC50 in series [1] and in series [2] were 845 nM and 2310 nM, respectively.

In turn, `COc1ccc2[nH]c3c[n+](CCCCC[n+]4ccc5c(c4)[nH]c4ccc(OC)cc45)ccc3c2c1.[Br-].[Br-]` gave an Activity in series [3] of 84.1%. Also, the IC50 in series [1] is over 10000 nM; in series [2], 319 nM. Also, in series [4], the CC50 is over 100000 nM.

Broadly, the inhibition is the drop in the measured response relative to a control, in per cent. As for `NCCCNCCCCNCCCN`, in series [6], the inhibition worked out at 108%.

With `C[C@]12N[C@H](Cc3ccccc31)c1ccccc12` [DIZOCILPINE], in series [3], the Activity amounted to 100.3%. In series [4], this compound had a CC50 of over 100000 nM.

In series [3], `c1ccc2c(c1)c1ccncc1n2CCCCCCCCCn1c2ccccc2c2ccncc21` registered an Activity of 67.7%. This compound registered a CC50 in series [4] of over 100000 nM.

In turn, `CC12CC3CC(C)(C1)CC(N)(C3)C2` [MEMANTINE] registered an Activity in series [3] of 100.4%. For the same compound, the IC50 in series [1] and in series [2] was over 10000 nM in each case. This compound came in with a CC50 in series [4] of over 100000 nM.

For the compound `[Br-].[Br-].c1ccc2c(c1)[nH]c1c[n+](CCCCCCCC[n+]3ccc4c(c3)[nH]c3ccccc34)ccc12`, in series [3], the Activity is recorded as 51.8%. In addition, the values for the IC50 in series [1] and in series [2] were 113 nM and 75 nM, respectively. Besides, the CC50 in series [4] was 54200 nM.

For the compound `[Br-].[Br-].c1ccc2c(c1)[nH]c1c[n+](Cc3ccc(C[n+]4ccc5c(c4)[nH]c4ccccc45)cc3)ccc12`, the Activity in series [3] is recorded as 83.2%. Further, the 50% inhibitory concentration (IC50) in series [1] was 147 nM; in series [2] it was 439 nM and 473 nM. In addition, in series [4], the CC50 is over 100000 nM.

For the compound `[Br-].[Br-].c1ccc2c(c1)[nH]c1c[n+](CCCC[n+]3ccc4c(c3)[nH]c3ccccc34)ccc12`, the Activity in series [3] worked out at 78.2%. The values for the IC50 in series [1] and in series [2] were 278 nM and 78 nM, respectively. This compound also had a CC50 in series [4] of over 100000 nM.

`Oc1ccc2[nH]c3c[n+](CCCCC[n+]4ccc5c(c4)[nH]c4ccc(O)cc45)ccc3c2c1.[Br-].[Br-]`: in series [3], the Activity is listed as 71.8%. Besides, the IC50 stood at 4260 nM in series [1] and 1630 nM in series [2]. The compound also yielded a half-maximal cytotoxic concentration (CC50) in series [4] of over 100000 nM.

With `[Br-].[Br-].c1ccc2c(c1)[nH]c1c[n+](CCCCCCCCCC[n+]3ccc4c(c3)[nH]c3ccccc34)ccc12`, the Activity in series [3] is listed as 67.5%. For the same compound, the half-maximal inhibitory concentration (IC50) in series [1] is 63 nM; in series [2], 49 nM. The compound further registered a CC50 in series [4] of over 100000 nM.

As for `[Br-].[Br-].c1ccc2c(c1)[nH]c1c[n+](CCCCCCC[n+]3ccc4c(c3)[nH]c3ccccc34)ccc12`, the Activity in series [3] was 80.1%. In addition, the IC50 in series [1] stood at 81 nM; in series [2], 65 nM. In series [4], this compound returned a cytotoxic concentration (CC50) of over 100000 nM.

Turning to `c1ccc2c3c([nH]c2c1)CN(CCCCCN1CCc2c([nH]c4ccccc24)C1)CC3`, the half-maximal inhibitory concentration (IC50) in series [1] and in series [2] was over 1000 nM in each case.

With `[Br-].[Br-].c1ccc2c(c1)[nH]c1c[n+](CCCCCCCCCCC[n+]3ccc4c(c3)[nH]c3ccccc34)ccc12`, the Activity in series [3] is given as 60.3%. For the same compound, the half-inhibitory concentration (IC50) came to 92 nM in series [1] and 18 nM in series [2]. This compound also displayed a CC50 in series [4] of over 100000 nM.

For the compound `C[n+]1ccc2c3ccccc3n(CCCCCn3c4ccccc4c4cc[n+](C)cc43)c2c1`, the results for the 50% inhibitory concentration (IC50) in series [1] and in series [2] were 280 nM and 19 nM, respectively.

In series [3], `c1ccc2c(c1)c1ccncc1n2CCCCCCCCCCCCn1c2ccccc2c2ccncc21` gave an Activity of 100.2%. Moreover, the IC50 in series [1] and in series [2] was over 10000 nM in each case. In series [4], this compound returned a CC50 of over 100000 nM.

Turning to `[Br-].[Br-].c1ccc2c(c1)[nH]c1c[n+](CCCCCCCCCCCC[n+]3ccc4c(c3)[nH]c3ccccc34)ccc12`, the Activity in series [3] worked out at 38%. Further, the IC50 worked out at 86 nM in series [1] and 22 nM in series [2]. The compound further registered a cytotoxic concentration (CC50) in series [4] of 35100 nM.

In the case of `[Br-].[Br-].c1ccc2c(c1)[nH]c1c[n+](CCCCC[n+]3ccc4c(c3)[nH]c3ccccc34)ccc12`, the Activity in series [3] was 92.4%. In addition, the half-inhibitory concentration (IC50) in series [1] is 595 nM; in series [2], 48.9 nM and 48 nM. Further, the half-maximal cytotoxic concentration (CC50) in series [4] is over 100000 nM.

For `c1cc[n+](CCCCCC[n+]2ccc3c(c2)[nH]c2ccccc23)cc1`, the IC50 in series [1] is 564 nM; in series [2], 6330 nM.

For `C[n+]1ccc2c3ccccc3n(CCCCCCCCCCCCn3c4ccccc4c4cc[n+](C)cc43)c2c1.[I-].[I-]`, in series [3], the Activity is on record as 52.9%. The IC50 in series [1] was determined as 1.2 nM; in series [2], 4 nM. This compound also had a CC50 in series [4] of 33800 nM.
